From patent US8680272B2, “3-arylethynyl substituted quinazolinone compounds” (Council of Scientific & Industrial Research, priority 2011, dated 2014)

Legend:
NCI-H23 = test: Anticancer activity, SRB assay, non-small lung cell line NCI-H23; format: cell-based; details: Homo sapiens, Non-small lung NCl-H23, 48 h continuous drug exposure, read-out: Growth Inhibition GI50
Procedure: (§1) Some of biological activity studies were carried out at the National Cancer Institute (NCI), Maryland, USA.
(§2) The compounds were evaluated for anticancer activity against sixty human cancer cells derived from nine cancer types (leukemia cell line, non-small-cell lung cell line, colon cell line, CNS cell line, melanoma cell line, ovarian cell line, prostate cell line, renal cell line and breast cancer cell line) as shown in Table 1. For each compound, dose response curves for each cell line were measured at a minimum of five concentrations at 10 fold dilutions. A protocol of 48 h continuous drug exposure was used and a sulforhodamine B (SRB) protein assay was used to estimate cell viability or growth.

NCI-H460 = test: Anticancer activity, SRB assay, non-small lung cell line NCI-H460; format: cell-based; details: Homo sapiens, Non-small lung NCl-H460, 48 h continuous drug exposure, read-out: Growth Inhibition GI50
Procedure: as §1, §2

KM12 = test: Anticancer activity, SRB assay, colon cell line KM12; format: cell-based; details: Homo sapiens, 48 h continuous drug exposure, read-out: Growth Inhibition GI50
Procedure: as §1, §2

CAKI-1 = test: Anticancer activity, SRB assay, renal cell line CAKI-1; format: cell-based; details: Homo sapiens; Renal CAKI-1; 48 h continuous drug exposure; read-out: Growth Inhibition GI50
Procedure: as §1, §2

IGROV1 = test: Anticancer activity, SRB assay, ovarian cell line IGROV1; format: cell-based, human; details: —^b means GI50 values not attained at the concentrations used
Procedure: as §1, §2

SF-539 = test: Anticancer activity, SRB assay, CNS cell line SF-539; format: cell-based, human; details: CNS SF-539, 48 h continuous drug exposure, —^b means GI50 values not attained at the concentrations used
Procedure: as §1, §2

SK-MEL-28 = test: Anticancer activity, SRB assay, melanoma cell line SK-MEL-28; format: cell-based, human; details: Melanoma SK-MEL-28, 48 h continuous drug exposure, —^b means GI50 values not attained at the concentrations used
Procedure: as §1, §2

SN12C = test: Anticancer activity, SRB assay, renal cell line SN12C; format: cell-based, human; details: 48 h continuous drug exposure, —^b means GI50 values not attained at the concentrations used
Procedure: as §1, §2

[1] = system: six leukemia cancer cell lines (CCRF-CEM, HL-60, K-562, MOLT-4, SR and RPMI-8226); test: Anticancer activity, SRB assay, leukemia panel; format: cell-based, human; details: for GI50: Homo sapiens, six leukemia cancer cell lines, exposure period of at least 48 h, read-out: GI50 (range over the panel); for mean graph midpoint values (MG_MID) of log10 TGI (Log10TGI50) / mean graph midpoint values (MG_MID) of Log10LC50 / mean graph midpoint values (MG_MID) of Log10GI50: Leukemia; for mean graph midpoint values (MG_MID) of log10 TGI (Log10TGI50): log value of concentration of the compound resulting in total inhibition of net cell growth; for mean graph midpoint values (MG_MID) of Log10LC50: log value of the concentration of compounds leading to 50% net cell death; for mean graph midpoint values (MG_MID) of Log10GI50: log values of concentration in mol/L causing 50% inhibition of net cell growth
Procedure: as §1, §2

SF-295 = test: Anticancer activity, SRB assay, CNS cell line SF-295; format: cell-based, human; details: CNS SF-295, 48 h continuous drug exposure, —^b means GI50 values not attained at the concentrations used
Procedure: as §1, §2

[2] = system: eight renal cancer cell line (786-0, A498, ACHN, CAKI-1, SN12C, TK-10, UO-31 and RXF 393); test: Anticancer activity, SRB assay, renal panel; format: cell-based, human; set-up: mean graph midpoint values (MG_MID) of Log10LC50 / mean graph midpoint values (MG_MID) of log10 TGI (Log10TGI50): unit not given here; details: for GI50: Homo sapiens, eight renal cancer cell line, exposure period of at least 48 h, read-out: in vitro anticancer activity (range over the panel); for mean graph midpoint values (MG_MID) of log10 TGI (Log10TGI50) / mean graph midpoint values (MG_MID) of Log10LC50 / mean graph midpoint values (MG_MID) of Log10GI50: Renal; for mean graph midpoint values (MG_MID) of log10 TGI (Log10TGI50): log value of concentration of the compound resulting in total inhibition of net cell growth; for mean graph midpoint values (MG_MID) of Log10LC50: log value of the concentration of compounds leading to 50% net cell death; for mean graph midpoint values (MG_MID) of Log10GI50: log values of concentration in mol/L causing 50% inhibition of net cell growth
Procedure: as §1, §2

OVCAR-5 = test: Anticancer activity, SRB assay, ovarian cell line OVCAR-5; format: cell-based, human; details: Ovarian OVCAR-5, 48 h continuous drug exposure, —^b means GI50 values not attained at the concentrations used
Procedure: as §1, §2

COLO 205 = test: Anticancer activity, SRB assay, colon cell line COLO 205; format: cell-based; details: Homo sapiens; Colon COLO 205; 48 h continuous drug exposure; read-out: Growth Inhibition GI50
Procedure: as §1, §2

SW-620 = test: Anticancer activity, SRB assay, colon cell line SW-620; format: cell-based; details: Homo sapiens; Colon SW-620; 48 h continuous drug exposure; read-out: Growth Inhibition GI50
Procedure: as §1, §2

UACC-62 = test: Anticancer activity, SRB assay, melanoma cell line UACC-62; format: cell-based; details: Homo sapiens; Melanoma UACC-62; 48 h continuous drug exposure; read-out: Growth Inhibition GI50
Procedure: as §1, §2

HOP-62 = test: Anticancer activity, SRB assay, non-small lung cell line HOP-62; format: cell-based, human; details: Non-small lung HOP-62, 48 h continuous drug exposure, —^b means GI50 values not attained at the concentrations used
Procedure: as §1, §2

HOP-92 = test: Anticancer activity, SRB assay, non-small lung cell line HOP-92; format: cell-based, human; details: Non-small lung HOP-92, 48 h continuous drug exposure, —^b means GI50 values not attained at the concentrations used
Procedure: as §1, §2

SK-MEL-2 = test: Anticancer activity, SRB assay, melanoma cell line SK-MEL-2; format: cell-based, human; details: Melanoma SK-MEL-2, 48 h continuous drug exposure, —^b means GI50 values not attained at the concentrations used
Procedure: as §1, §2

HCT-116 = test: Anticancer activity, SRB assay, colon cell line HCT-116; format: cell-based; details: Homo sapiens; Colon HCT-116; 48 h continuous drug exposure; read-out: Growth Inhibition GI50
Procedure: as §1, §2

A498 = test: Anticancer activity, SRB assay, renal cell line A498; format: cell-based, human; details: 48 h continuous drug exposure, —^b means GI50 values not attained at the concentrations used
Procedure: as §1, §2

HL-60(TB) = test: Anticancer activity, SRB assay, leukemia cell line HL-60(TB); format: cell-based; details: Homo sapiens; Leukemia HL-60(TB); 48 h continuous drug exposure; read-out: Growth Inhibition GI50
Procedure: as §1, §2

OVCAR-3 = test: Anticancer activity, SRB assay, ovarian cell line OVCAR-3; format: cell-based; details: Homo sapiens; Ovarian OVCAR-3; 48 h continuous drug exposure; read-out: Growth Inhibition GI50
Procedure: as §1, §2

[3] = Anticancer activity, SRB assay, melanoma panel; format: cell-based, human; details: Homo sapiens; nine melanoma cancer cell line; exposure period of at least 48 h; read-out: GI50 (range over the panel)
Procedure: as §1, §2

[4] = system: nine melanoma cancer cell line (LOX IMVI, MALME-3M, M14, MDA-MB-435, SK-MEL-2, SK-MEL-28, SK-MEL-5, UACC-257 and UACC-62); test: Anticancer activity, SRB assay, melanoma panel; format: cell-based, human; details: Melanoma; for mean graph midpoint values (MG_MID) of log10 TGI (Log10TGI50): log value of concentration of the compound resulting in total inhibition of net cell growth; for mean graph midpoint values (MG_MID) of Log10LC50: log value of the concentration of compounds leading to 50% net cell death; for mean graph midpoint values (MG_MID) of Log10GI50: log values of concentration in mol/L causing 50% inhibition of net cell growth
Procedure: as §1, §2

MDA-MB-231/ATCC = test: Anticancer activity, SRB assay, breast cell line MDA-MB-231/ATCC; format: cell-based; details: Homo sapiens; Breast MDA-MB-231/ATCC; 48 h continuous drug exposure; read-out: Growth Inhibition GI50
Procedure: as §1, §2

ACHN = test: Anticancer activity, SRB assay, renal cell line ACHN; format: cell-based, human; details: 48 h continuous drug exposure, —^b means GI50 values not attained at the concentrations used
Procedure: as §1, §2

[5] = Homo sapiens, read-out: Growth Inhibition GI50

Row | SMILES | GI50 (NCI-H23) [µM] | GI50 (NCI-H460) [µM] | GI50 (KM12) [µM] | GI50 (CAKI-1) [µM] | GI50 [1] [µM] | mean graph midpoint values (MG_MID) of log10 TGI (Log10TGI50) [1] | mean graph midpoint values (MG_MID) of Log10LC50 [1] | mean graph midpoint values (MG_MID) of Log10GI50 [1] [mol/L] | GI50 [2] [µM] | mean graph midpoint values (MG_MID) of log10 TGI (Log10TGI50) [2] | mean graph midpoint values (MG_MID) of Log10LC50 [2] | mean graph midpoint values (MG_MID) of Log10GI50 [2] [mol/L] | GI50 (COLO 205) [µM] | GI50 (SW-620) [µM] | GI50 (UACC-62) [µM] | GI50 (HCT-116) [µM] | GI50 (HL-60(TB)) [µM] | GI50 (OVCAR-3) [µM] | GI50 [3] [µM] | mean graph midpoint values (MG_MID) of log10 TGI (Log10TGI50) [4] | other results
1 | Cc1cc(C#Cc2ccccc2)ccc1-n1c(/C=C/c2cc(O)ccc2O)nc2ccccc2c1=O [Compound 4c, (E)-2-(2,5-Dihydroxystyryl)-3-(2-methyl-4-(phenylethynyl)phenyl)quinazolin-4(3H)-one] | 1.48 | 1.57 | 1.65 | 2.15 | 0.634 to 1.54 | −5.38 | −4.40 | −5.94 | 0.37 to 2.15 | −5.43 | −4.93 | −5.86 | 1.48 | 1.71 | 1.52 | 1.46 | 0.634 | 1.49 | 1.35 to 1.67 | −5.52 | GI50 (IGROV1; Homo sapiens, IGROV-1, 48 h continuous drug exposure, read-out: Growth Inhibition GI50): 2.45 µM; GI50 (SF-539; [5]): 1.6 µM; GI50 (SK-MEL-28; [5]): 1.53 µM; GI50 (SN12C; [5]): 1.62 µM; GI50 (SF-295; [5]): 1.35 µM; GI50 (OVCAR-5; [5]): 1.39 µM; GI50 (HOP-62; [5]): 1.71 µM; GI50 (HOP-92; [5]): 1.54 µM; GI50 (SK-MEL-2; [5]): 1.4 µM; GI50 (A498; [5]): 0.37 µM; mean graph midpoint values (MG_MID) of Log10LC50 [4]: −5.22; mean graph midpoint values (MG_MID) of Log10GI50 [4]: −5.83 mol/L; GI50 (MDA-MB-231/ATCC): 1.56 µM; GI50 (ACHN; [5]): 1.44 µM
2 | COc1ccc2cc(C#Cc3ccc(-n4c(/C=C/c5cc(OC)c(OC)c(OC)c5)nc5ccccc5c4=O)c(C)c3)ccc2c1 [Compound 6l, (E)-3-(4-((6-Methoxynaphthalen-2-yl)ethynyl)-2-methylphenyl)-2-(3,4,5-trimethoxystyryl)quinazolin-4(3H)-one] | 40.5 | 2.48 | 4.3 | 4.91 | 0.395 to 4.66 | >−4.00 | >−4.00 | −5.67 | 4.91 | >−4.00 | >−4.00 | −4.16 | 6.96 | 17.2 | 2.19 | 3.53 | 0.686 | 19.3 | 1.85 to 42.6 | >−4.00 | Growth Inhibition GI50 (IGROV1; 48 h continuous drug exposure): —^b; Growth Inhibition GI50 (SF-539): —^b; Growth Inhibition GI50 (SK-MEL-28): —^b; Growth Inhibition GI50 (SN12C): —^b; Growth Inhibition GI50 (SF-295): —^b; Growth Inhibition GI50 (OVCAR-5): —^b; Growth Inhibition GI50 (HOP-62): —^b; Growth Inhibition GI50 (HOP-92): —^b; Growth Inhibition GI50 (SK-MEL-2): —^b; Growth Inhibition GI50 (A498): —^b; mean graph midpoint values (MG_MID) of Log10LC50 [4]: >−4.00; mean graph midpoint values (MG_MID) of Log10GI50 [4]: −4.79 mol/L; GI50 (MDA-MB-231/ATCC): 37 µM; Growth Inhibition GI50 (ACHN): —^b
